From patent publication US11492345B2, “Compounds and their methods of use” (Praxis Precision Medicines, Inc., priority 2017, dated 2022) come the findings set out here.

Structures are written as SMILES.

The target of this assay is T1, human Nav1.6 (hNav1.6) (Homo sapiens, UniProt Q9UQD0).
T1 construct: expressed in transfected cells; host or cells: HEK-293 (G418 selection)
T1 sequence (Q9UQD0 whole entry): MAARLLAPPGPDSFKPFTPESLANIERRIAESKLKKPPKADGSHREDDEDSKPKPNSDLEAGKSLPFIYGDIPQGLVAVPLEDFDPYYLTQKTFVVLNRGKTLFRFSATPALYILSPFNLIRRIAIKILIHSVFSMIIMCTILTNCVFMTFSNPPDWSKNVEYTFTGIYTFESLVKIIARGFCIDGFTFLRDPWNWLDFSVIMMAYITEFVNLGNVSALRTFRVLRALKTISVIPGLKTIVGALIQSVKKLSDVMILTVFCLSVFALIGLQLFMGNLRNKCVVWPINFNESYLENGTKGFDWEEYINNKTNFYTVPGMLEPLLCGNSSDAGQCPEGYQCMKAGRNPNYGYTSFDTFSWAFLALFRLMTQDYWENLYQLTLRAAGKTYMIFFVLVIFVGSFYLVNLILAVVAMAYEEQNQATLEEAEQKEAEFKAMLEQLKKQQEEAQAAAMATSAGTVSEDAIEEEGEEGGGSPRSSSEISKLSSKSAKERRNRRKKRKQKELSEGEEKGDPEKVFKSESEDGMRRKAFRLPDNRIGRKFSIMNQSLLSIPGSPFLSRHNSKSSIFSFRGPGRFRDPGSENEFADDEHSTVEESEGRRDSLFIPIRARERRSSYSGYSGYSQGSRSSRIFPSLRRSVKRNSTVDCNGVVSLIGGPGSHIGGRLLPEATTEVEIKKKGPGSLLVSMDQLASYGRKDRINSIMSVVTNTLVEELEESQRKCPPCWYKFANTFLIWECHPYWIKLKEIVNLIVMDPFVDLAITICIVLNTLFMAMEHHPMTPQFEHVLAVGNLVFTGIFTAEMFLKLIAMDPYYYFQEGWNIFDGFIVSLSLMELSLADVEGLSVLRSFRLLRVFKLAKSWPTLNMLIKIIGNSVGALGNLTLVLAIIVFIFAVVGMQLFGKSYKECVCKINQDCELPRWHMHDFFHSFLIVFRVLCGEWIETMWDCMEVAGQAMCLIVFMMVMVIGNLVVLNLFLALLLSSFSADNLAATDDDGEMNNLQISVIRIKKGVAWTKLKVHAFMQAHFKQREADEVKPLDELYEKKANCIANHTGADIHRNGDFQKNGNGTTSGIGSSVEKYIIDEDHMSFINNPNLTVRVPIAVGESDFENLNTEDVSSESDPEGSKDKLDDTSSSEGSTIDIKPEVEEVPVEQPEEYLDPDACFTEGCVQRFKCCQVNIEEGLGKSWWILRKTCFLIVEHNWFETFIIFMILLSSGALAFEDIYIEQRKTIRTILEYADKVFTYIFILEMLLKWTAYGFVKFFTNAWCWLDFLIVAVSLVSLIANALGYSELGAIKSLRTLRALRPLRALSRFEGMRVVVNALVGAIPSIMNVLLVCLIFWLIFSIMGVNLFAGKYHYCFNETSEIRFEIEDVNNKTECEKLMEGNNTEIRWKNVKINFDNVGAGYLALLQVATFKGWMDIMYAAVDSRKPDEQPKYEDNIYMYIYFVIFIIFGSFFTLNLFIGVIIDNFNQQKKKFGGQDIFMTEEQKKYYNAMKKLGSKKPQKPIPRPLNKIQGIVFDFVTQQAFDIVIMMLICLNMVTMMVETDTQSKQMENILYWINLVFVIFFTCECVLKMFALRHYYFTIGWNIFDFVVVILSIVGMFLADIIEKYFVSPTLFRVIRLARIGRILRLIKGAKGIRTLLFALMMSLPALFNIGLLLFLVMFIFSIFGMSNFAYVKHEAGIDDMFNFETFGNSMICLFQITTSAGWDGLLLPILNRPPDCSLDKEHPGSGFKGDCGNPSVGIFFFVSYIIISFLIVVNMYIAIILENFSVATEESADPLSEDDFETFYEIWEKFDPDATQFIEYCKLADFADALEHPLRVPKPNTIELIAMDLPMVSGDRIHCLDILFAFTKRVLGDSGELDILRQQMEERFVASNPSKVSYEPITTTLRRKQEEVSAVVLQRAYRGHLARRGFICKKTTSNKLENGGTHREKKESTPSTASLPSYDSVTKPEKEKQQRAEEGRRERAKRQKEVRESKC
The assay is described as follows: Modulation of late sodium current (INaL), PatchXpress electrophysiology. Format: cell-based. To be noted: HEK293; 1 μM compound; HEK-293 cells expressing recombinant human Nav channel; late current evoked by 300 nM ATX-II; steady-state inhibition; read-out: INaL v1.6 (1 μM, % Inhibition). On the procedure:
Functional characterization of exemplary compounds to modulate INaL expressed by the Nav1.6 voltage-gated sodium channel was accomplished using the PatchXpress™ high throughput electrophysiology platform (Molecular Devices, Sunnyvale, Calif.). HEK-293 cells expressing recombinant, human Nav1.6 (hNav1.6) were grown in DMEM/high-glucose Dulbecco's modified, 10% FBS, 2 mM sodium pyruvate, 10 mM HEPES and 400 μg/mL G418. Cells were grown to 50%-80% confluency prior to harvesting. Trypsinized cells were washed, allowed to recover for 1 hour and then resuspended in extracellular recording solution at a concentration of 1×10^6 cells/ml. The onboard liquid handling facility of the PatchXpress was used for dispensing cells and applying test compounds. Nav late currents were evoked by the application of 300 nM ATX-II. INaL was evoked by depolarizing pulses to 0 mV for 200 ms from a non-inactivating holding potential (e.g., −120 mV) at a frequency of 0.1 Hz. INaL amplitude and stability were determined by analyzing the mean current amplitude over the final 20 ms of the test pulse. […] Percent steady-state inhibition of INaL was calculated as: [(INaL_compound)/(INaL_control)]*100, where INaL_compound and INaL_control represent INaL recorded in the presence or absence of compound, respectively.
Consider `O=c1oc2ccc(-c3ccc(OC(F)(F)F)cc3)nc2n1CC(F)(F)F` [Compound 33], for which the inhibition at 1 µM was more than 70%.
In the case of `O=c1oc2ncc(-c3ccc(OC(F)(F)F)cc3)cc2n1Cc1ccccc1` [Compound 34] it was 30 to 70%; in that of `O=c1[nH]c2cc(-c3ccc(OC(F)(F)F)cc3)cnc2o1` [Compound 37], 30 to 70%.
As to `CCN(CC)C(=O)Cn1c(=O)oc2ccc(-c3ccc(OC(F)(F)F)cc3)cc21` [Compound 39], the inhibition at 1 µM was more than 70%.
Regarding `O=C(Cn1c(=O)oc2ccc(-c3ccc(OC(F)(F)F)cc3)cc21)N1CCOCC1` [Compound 40], the inhibition at 1 µM lay within 30 to 70%.
`CNC(=O)Cn1c(=O)oc2ccc(-c3ccc(OC(F)(F)F)cc3)cc21` [Compound 41]: the inhibition at 1 µM is less than 30%.
Consider `NC(=O)Cn1c(=O)oc2ccc(-c3ccc(OC(F)(F)F)cc3)cc21` [Compound 42], for which the inhibition at 1 µM is less than 30%.
Regarding `Cn1c(=O)oc2ncc(-c3ccc(OC(F)(F)F)cc3)cc21` [Compound 43], the inhibition at 1 µM is less than 30%.
In the case of `CC(C(=O)N1CCCC1)n1c(=O)oc2ccc(-c3ccc(OC(F)(F)F)cc3)cc21` (centres unmarked) [Compound 45] it was less than 30%.
For `O=c1oc2ncc(-c3ccc(OC(F)(F)F)cc3)cc2n1Cc1ncccn1` [Compound 49], the inhibition at 1 µM is less than 30%.
Consider `O=c1oc2ccc(-c3ccc(OC(F)(F)F)cc3)cc2n1Cc1ncccn1` [Compound 50], for which the inhibition at 1 µM lay within 30 to 70%.
Consider `Cc1nnc(Cn2c(=O)oc3ccc(-c4ccc(OC(F)(F)F)cc4)cc32)o1` [Compound 51], for which the inhibition at 1 µM was in the range of 30 to 70%.
Regarding `O=c1oc2ccc(-c3ccc(OC(F)(F)F)cc3)cc2n1CC1CCOCC1` [Compound 56], the inhibition at 1 µM was more than 70%.
Turning to `O=c1oc2ccc(-c3ccc(OC(F)(F)F)cc3)cc2n1CC1CCCCO1` (centres unmarked) [Compound 57], the inhibition at 1 µM was more than 70%.
As to `O=c1oc2ccc(-c3ccc(OC(F)(F)F)cc3)cc2n1CC1CCOC1` (centres unmarked) [Compound 68], the inhibition at 1 µM is more than 70%.
For `CCn1c(=O)oc2ccc(-c3cnc(OCC(F)(F)F)c(F)c3)nc21` [Compound 71], the inhibition at 1 µM was less than 30%.
On to `O=c1oc2ccc(-c3ccc(OC(F)(F)F)cc3)cc2n1CC1CCCOC1` (centres unmarked) [Compound 72], for which the inhibition at 1 µM was more than 70%.
For the molecule `Cn1c(=O)oc2ccc(-c3ccc(OC(F)(F)F)cc3)nc21` [Compound 75], the inhibition at 1 µM is more than 70%.
The result for `CCn1c(=O)oc2ccc(-c3ccc(OC(F)(F)F)cc3)nc21` [Compound 76] reads more than 70%; that for `CC(C)n1c(=O)oc2ccc(-c3ccc(OC(F)(F)F)cc3)nc21` [Compound 78], more than 70%; that for `O=C(Cn1c(=O)oc2ccc(-c3ccc(OC(F)(F)F)cc3)nc21)N1CCCC1` [Compound 79], 30 to 70%.
On to `CN(CC(F)(F)F)C(=O)Cn1c(=O)oc2ccc(-c3ccc(OC(F)(F)F)cc3)cc21` [Compound 80], for which the inhibition at 1 µM was in the range of 30 to 70%.
With `O=c1oc2ccc(-c3ccc(OC(F)(F)F)cc3)cc2n1Cc1cncnc1` [Compound 84], the inhibition at 1 µM was more than 70%.
Regarding `CCN(C)C(=O)Cn1c(=O)oc2ccc(-c3ccc(OC(F)(F)F)cc3)cc21` [Compound 85], the inhibition at 1 µM was in the range of 30 to 70%.
Consider `O=c1oc2ccc(-c3ccc(OC(F)(F)F)cc3)nc2n1CC(F)F` [Compound 86], for which the inhibition at 1 µM is more than 70%.
For `O=c1oc2ccc(-c3ccc(OC(F)(F)F)cc3)nc2n1CCc1ncccn1` [Compound 87], the inhibition at 1 µM fell in the range of 30 to 70%.
Take `CC(O)CCn1c(=O)oc2ccc(-c3ccc(OC(F)(F)F)cc3)nc21` (centres unmarked) [Compound 89]: the inhibition at 1 µM is more than 70%.
For `O=c1oc2ccc(-c3ccc(OC(F)(F)F)cc3)nc2n1CCCO` [Compound 90], the inhibition at 1 µM fell in the range of 30 to 70%.
For the molecule `[2H]C([2H])([2H])C([2H])([2H])n1c(=O)oc2ccc(-c3ccc(OC(F)(F)F)cc3)nc21` [Compound 91], the inhibition at 1 µM fell in the range of 30 to 70%.
As for `O=c1oc2ncc(-c3ccc(OC(F)(F)F)cc3)cc2n1CCc1ncccn1` [Compound 92], the inhibition at 1 µM is less than 30%.
In the case of `[2H]C([2H])([2H])n1c(=O)oc2ccc(-c3ccc(OC(F)(F)F)cc3)nc21` [Compound 93] it was more than 70%; in that of `CCn1c(=O)oc2ccc(-c3cnc(OCC(F)(F)F)c(F)c3)cc21` [Compound 96], 30 to 70%; in that of `C[C@@H](O)CCn1c(=O)oc2ccc(-c3ccc(OC(F)(F)F)cc3)cc21` [Compound 97], more than 70%.
In the case of `C[C@H](O)CCn1c(=O)oc2ccc(-c3ccc(OC(F)(F)F)cc3)cc21` [Compound 98] it was 30 to 70%.
Consider `O=c1oc2ccc(-c3ccc(OC(F)(F)F)cc3)nc2n1CC1CCOCC1` [Compound 101], for which the inhibition at 1 µM was more than 70%.
In the case of `O=c1oc2ccc(-c3ccc(OC(F)(F)F)cc3)nc2n1CC1COC1` [Compound 102], the inhibition at 1 µM is more than 70%.
`O=c1oc2ccc(-c3ccc(OC(F)(F)F)cc3)nc2n1Cc1cncnc1` [Compound 103]: the inhibition at 1 µM was more than 70%.
The result for `O=c1oc2ccc(-c3ccc(OC(F)(F)F)cc3)cc2n1C[C@@H]1CCCO1` [Compound 104] reads more than 70%.
Consider `O=c1oc2ccc(-c3ccc(OC(F)(F)F)cc3)cc2n1C[C@H]1CCCO1` [Compound 105], for which the inhibition at 1 µM is more than 70%.
For `CC(=O)N1CCC[C@@H]1Cn1c(=O)oc2ccc(-c3ccc(OC(F)(F)F)cc3)cc21` [Compound 109], the inhibition at 1 µM was more than 70%.
In the case of `CC(=O)N1CCC[C@H]1Cn1c(=O)oc2ccc(-c3ccc(OC(F)(F)F)cc3)cc21` [Compound 111], the inhibition at 1 µM lay in the range of 30 to 70%.
As for `CS(=O)(=O)N1CCC[C@H]1Cn1c(=O)oc2ccc(-c3ccc(OC(F)(F)F)cc3)cc21` [Compound 113], the inhibition at 1 µM was 30 to 70%.
On to `O=C(Cn1c(=O)oc2ccc(-c3ccc(OC(F)(F)F)cc3)cc21)N1CC[C@@H](O)C1` [Compound 114], for which the inhibition at 1 µM was less than 30%.
In the case of `O=C(Cn1c(=O)oc2ccc(-c3ccc(OC(F)(F)F)cc3)cc21)N1CC[C@H](O)C1` [Compound 115], the inhibition at 1 µM is less than 30%.
In the case of `O=c1oc2ccc(-c3ccc(OC(F)(F)F)cc3)cc2n1CCc1cncnc1` [Compound 117], the inhibition at 1 µM was more than 70%.
In the case of `CS(=O)(=O)N1CCC[C@@H]1Cn1c(=O)oc2ccc(-c3ccc(OC(F)(F)F)cc3)cc21` [Compound 118], the inhibition at 1 µM was less than 30%.
Turning to `O=C(Cn1c(=O)oc2ccc(-c3ccc(OC(F)(F)F)cc3)nc21)N1CCCCC1` [Compound 119], the inhibition at 1 µM was more than 70%.
As to `O=c1oc2ccc(-c3ccc(OC(F)(F)F)cc3)cc2n1CCc1cnccn1` [Compound 120], the inhibition at 1 µM is more than 70%.
Regarding `Cc1cc(OC(F)(F)F)ccc1-c1ccc2oc(=O)n(CCc3ncccn3)c2n1` [Compound 121], the inhibition at 1 µM was 30 to 70%.
The result for `O=c1oc2ccc(-c3cnc(OCC(F)(F)F)c(F)c3)nc2n1CCc1ncccn1` [Compound 122] reads less than 30%; that for `O=c1oc2ccc(-c3ccc(OC(F)(F)F)cc3)nc2n1CCc1cnccn1` [Compound 123], more than 70%.
Take `O=c1oc2ccc(-c3ccc(OC(F)(F)F)cc3)nc2n1CCc1cncnc1` [Compound 124]: the inhibition at 1 µM was more than 70%.
The result for `CO[C@H]1CCN(C(=O)Cn2c(=O)oc3ccc(-c4ccc(OC(F)(F)F)cc4)cc32)C1` [Compound 125] reads less than 30%.
The result for `CO[C@@H]1CCN(C(=O)Cn2c(=O)oc3ccc(-c4ccc(OC(F)(F)F)cc4)cc32)C1` [Compound 126] reads 30 to 70%; that for `O=c1oc2ccc(-c3ccc(OC(F)(F)F)cc3)cc2n1Cc1cnccn1` [Compound 131], more than 70%; that for `O=c1oc2ccc(-c3ccc(OC(F)(F)F)cc3)cc2n1Cc1ccncn1` [Compound 132], more than 70%.
For the molecule `C[C@@H]1CCCN1C(=O)Cn1c(=O)oc2ccc(-c3ccc(OC(F)(F)F)cc3)nc21` [Compound 134], the inhibition at 1 µM was more than 70%.
For the molecule `O=c1oc2ccc(-c3ccc(OC(F)F)cc3)nc2n1CCc1ncccn1` [Compound 136], the inhibition at 1 µM is less than 30%.
Take `O=C(Cn1c(=O)oc2ccc(-c3cnc(OCC(F)(F)F)c(F)c3)nc21)N1CCCC1` [Compound 137]: the inhibition at 1 µM is less than 30%.
In the case of `O=c1oc2ccc(-c3ccc(OC(F)(F)F)cc3)nc2n1Cc1ccncn1` [Compound 141] it was 30 to 70%.
Regarding `O=C1CCCN1CCn1c(=O)oc2ccc(-c3ccc(OC(F)(F)F)cc3)nc21` [Compound 142], the inhibition at 1 µM is less than 30%.
As to `O=c1oc2ccc(-c3ccc(OC(F)(F)F)cc3)nc2n1Cc1cnccn1` [Compound 143], the inhibition at 1 µM is more than 70%.
As for `Cc1cc(OC(F)(F)F)ccc1-c1ccc2oc(=O)n(CC(=O)N3CCCC3)c2n1` [Compound 144], the inhibition at 1 µM is less than 30%.
In the case of `O=c1oc2ccc(-c3ccc(OC(F)(F)F)cc3)nc2n1CCc1ccncn1` [Compound 146], the inhibition at 1 µM was more than 70%.
`O=c1oc2ccc(-c3ccc(OC(F)(F)F)cc3)cc2n1CCc1ccncn1` [Compound 147]: the inhibition at 1 µM is more than 70%.
